Measurements: PMC4411097, “Pachymic Acid Inhibits Growth and Induces Apoptosis of Pancreatic Cancer In Vitro and In Vivo by Targeting ER Stress” (PLoS ONE, 2015)

System: MIA PaCa-2 cells
Experiment: DNA microarray analysis (Affymetrix Human PrimeView)
Assay type: cell-based

Compound: C=C(CC[C@@H](C(=O)O)[C@H]1[C@H](O)C[C@@]2(C)C3=C(CC[C@]12C)[C@@]1(C)CC[C@H](OC(C)=O)C(C)(C)[C@@H]1CC3)C(C)C [PA, Pachymic acid]
- Fold-Change (MiaPaca-2 * PA vs. MiaPaca-2 * control), HSPA1B (probeset 11729120_x_at): 1.90
- Mean (MiaPaca-2 * PA), HSPA1B (probeset 11729120_x_at): 11.15
- Fold-Change (MiaPaca-2 * PA vs. MiaPaca-2 * control), ADAMTS4 (probeset 11730923_x_at): 2.20
- Mean (MiaPaca-2 * PA), ADAMTS4 (probeset 11730923_x_at): 8.77
- Fold-Change (MiaPaca-2 * PA vs. MiaPaca-2 * control), RCAN1 (probeset 11733797_a_at): 1.68
- Mean (MiaPaca-2 * PA), RCAN1 (probeset 11733797_a_at): 9.17
- Fold-Change (MiaPaca-2 * PA vs. MiaPaca-2 * control), SOCS2 (probeset 11735148_a_at): 1.78
- Mean (MiaPaca-2 * PA), SOCS2 (probeset 11735148_a_at): 6.08
- Fold-Change (MiaPaca-2 * PA vs. MiaPaca-2 * control), C17orf91 (probeset 11736304_a_at): 1.70
- Mean (MiaPaca-2 * PA), C17orf91 (probeset 11736304_a_at): 6.00
- Fold-Change (MiaPaca-2 * PA vs. MiaPaca-2 * control), C17orf91 (probeset 11736305_x_at): 1.71
- Mean (MiaPaca-2 * PA), C17orf91 (probeset 11736305_x_at): 6.44
- Fold-Change (MiaPaca-2 * PA vs. MiaPaca-2 * control), SERPINB8 (probeset 11737922_a_at): 2.08
- Mean (MiaPaca-2 * PA), SERPINB8 (probeset 11737922_a_at): 8.90
- Fold-Change (MiaPaca-2 * PA vs. MiaPaca-2 * control), FLJ36031 (probeset 11739443_a_at): 1.69
- Mean (MiaPaca-2 * PA), FLJ36031 (probeset 11739443_a_at): 6.38
- Fold-Change (MiaPaca-2 * PA vs. MiaPaca-2 * control), TNFRSF9 (probeset 11740393_at): 2.27
- Mean (MiaPaca-2 * PA), TNFRSF9 (probeset 11740393_at): 8.01
- Fold-Change (MiaPaca-2 * PA vs. MiaPaca-2 * control), GBP3 (probeset 11741911_a_at): 1.86
- Mean (MiaPaca-2 * PA), GBP3 (probeset 11741911_a_at): 6.08
- Fold-Change (MiaPaca-2 * PA vs. MiaPaca-2 * control), CXCL2 (probeset 11744127_at): 2.45
- Mean (MiaPaca-2 * PA), CXCL2 (probeset 11744127_at): 10.98
- Fold-Change (MiaPaca-2 * PA vs. MiaPaca-2 * control), CXCL2 (probeset 11744128_x_at): 2.30
- Mean (MiaPaca-2 * PA), CXCL2 (probeset 11744128_x_at): 11.01
- Fold-Change (MiaPaca-2 * PA vs. MiaPaca-2 * control), HSPA1A (probeset 11744413_x_at): 2.45
- Mean (MiaPaca-2 * PA), HSPA1A (probeset 11744413_x_at): 10.47
- Fold-Change (MiaPaca-2 * PA vs. MiaPaca-2 * control), SAMD4A (probeset 11745209_a_at): 1.79
- Mean (MiaPaca-2 * PA), SAMD4A (probeset 11745209_a_at): 6.54
- Fold-Change (MiaPaca-2 * PA vs. MiaPaca-2 * control), SERPINE1 (probeset 11746856_a_at): 1.78
- Mean (MiaPaca-2 * PA), SERPINE1 (probeset 11746856_a_at): 7.81
- Fold-Change (MiaPaca-2 * PA vs. MiaPaca-2 * control), UPP1 (probeset 11747820_x_at): 1.93
- Mean (MiaPaca-2 * PA), UPP1 (probeset 11747820_x_at): 8.45
- Fold-Change (MiaPaca-2 * PA vs. MiaPaca-2 * control), SERPINB8 (probeset 11748180_a_at): 2.13
- Mean (MiaPaca-2 * PA), SERPINB8 (probeset 11748180_a_at): 10.10
- Fold-Change (MiaPaca-2 * PA vs. MiaPaca-2 * control), UPP1 (probeset 11748775_a_at): 1.75
- Mean (MiaPaca-2 * PA), UPP1 (probeset 11748775_a_at): 10.33
- Fold-Change (MiaPaca-2 * PA vs. MiaPaca-2 * control), FOS (probeset 11749291_a_at): 1.74
- Mean (MiaPaca-2 * PA), FOS (probeset 11749291_a_at): 6.87
- Fold-Change (MiaPaca-2 * PA vs. MiaPaca-2 * control), GBP1 (probeset 11749773_x_at): 1.92
- Mean (MiaPaca-2 * PA), GBP1 (probeset 11749773_x_at): 5.41
- Fold-Change (MiaPaca-2 * PA vs. MiaPaca-2 * control), CYR61 (probeset 11749905_a_at): 2.32
- Mean (MiaPaca-2 * PA), CYR61 (probeset 11749905_a_at): 9.84
- Fold-Change (MiaPaca-2 * PA vs. MiaPaca-2 * control), HSPA1A /// HSPA1B (probeset 11750411_x_at): 2.09
- Mean (MiaPaca-2 * PA), HSPA1A /// HSPA1B (probeset 11750411_x_at): 10.73
- Fold-Change (MiaPaca-2 * PA vs. MiaPaca-2 * control), MIR17HG (probeset 11752442_a_at): 1.88
- Mean (MiaPaca-2 * PA), MIR17HG (probeset 11752442_a_at): 6.16
- Fold-Change (MiaPaca-2 * PA vs. MiaPaca-2 * control), GBP1 (probeset 11752931_x_at): 1.83
- Mean (MiaPaca-2 * PA), GBP1 (probeset 11752931_x_at): 5.47
- Fold-Change (MiaPaca-2 * PA vs. MiaPaca-2 * control), EGR1 (probeset 11752940_a_at): 1.69
- Mean (MiaPaca-2 * PA), EGR1 (probeset 11752940_a_at): 10.59
- Fold-Change (MiaPaca-2 * PA vs. MiaPaca-2 * control), DUSP1 (probeset 11752993_a_at): 1.78
- Mean (MiaPaca-2 * PA), DUSP1 (probeset 11752993_a_at): 7.26
- Fold-Change (MiaPaca-2 * PA vs. MiaPaca-2 * control), TNFSF4 (probeset 11753073_a_at): 1.71
- Mean (MiaPaca-2 * PA), TNFSF4 (probeset 11753073_a_at): 5.89
- Fold-Change (MiaPaca-2 * PA vs. MiaPaca-2 * control), SLC3A2 (probeset 11753435_x_at): 1.69
- Mean (MiaPaca-2 * PA), SLC3A2 (probeset 11753435_x_at): 8.06
- Fold-Change (MiaPaca-2 * PA vs. MiaPaca-2 * control), IL8 (probeset 11754026_a_at): 2.84
- Mean (MiaPaca-2 * PA), IL8 (probeset 11754026_a_at): 11.16
- Fold-Change (MiaPaca-2 * PA vs. MiaPaca-2 * control), CXCL1 (probeset 11754114_a_at): 2.46
- Mean (MiaPaca-2 * PA), CXCL1 (probeset 11754114_a_at): 11.01
- Fold-Change (MiaPaca-2 * PA vs. MiaPaca-2 * control), HBEGF (probeset 11755981_a_at): 1.90
- Mean (MiaPaca-2 * PA), HBEGF (probeset 11755981_a_at): 4.80
- Fold-Change (MiaPaca-2 * PA vs. MiaPaca-2 * control), HSPA6 /// HSPA7 (probeset 11757367_s_at): 19.93
- Mean (MiaPaca-2 * PA), HSPA6 /// HSPA7 (probeset 11757367_s_at): 9.17
- Fold-Change (MiaPaca-2 * PA vs. MiaPaca-2 * control), NFKBIZ (probeset 11757513_at): 2.08
- Mean (MiaPaca-2 * PA), NFKBIZ (probeset 11757513_at): 10.08
- Fold-Change (MiaPaca-2 * PA vs. MiaPaca-2 * control), DDIT3 (probeset 11758347_s_at): 1.70
- Mean (MiaPaca-2 * PA), DDIT3 (probeset 11758347_s_at): 7.10
- Fold-Change (MiaPaca-2 * PA vs. MiaPaca-2 * control), MIR17HG (probeset 11758429_s_at): 1.80
- Mean (MiaPaca-2 * PA), MIR17HG (probeset 11758429_s_at): 4.78
- Fold-Change (MiaPaca-2 * PA vs. MiaPaca-2 * control), TNFSF18 (probeset 11759254_at): 1.84
- Mean (MiaPaca-2 * PA), TNFSF18 (probeset 11759254_at): 8.90
- Fold-Change (MiaPaca-2 * PA vs. MiaPaca-2 * control), NCRNA00275 (probeset 11759550_at): 1.82
- Mean (MiaPaca-2 * PA), NCRNA00275 (probeset 11759550_at): 7.61
- Fold-Change (MiaPaca-2 * PA vs. MiaPaca-2 * control), SAT1 (probeset 11760200_a_at): 1.75
- Mean (MiaPaca-2 * PA), SAT1 (probeset 11760200_a_at): 6.19
- Fold-Change (MiaPaca-2 * PA vs. MiaPaca-2 * control), EBNA1BP2 (probeset 11760295_at): 1.73
- Mean (MiaPaca-2 * PA), EBNA1BP2 (probeset 11760295_at): 4.62
- Fold-Change (MiaPaca-2 * PA vs. MiaPaca-2 * control), GRAMD1B (probeset 11762010_a_at): 1.80
- Mean (MiaPaca-2 * PA), GRAMD1B (probeset 11762010_a_at): 7.49
- Fold-Change (MiaPaca-2 * PA vs. MiaPaca-2 * control), CASP1 (probeset 11763186_at): 1.70
- Mean (MiaPaca-2 * PA), CASP1 (probeset 11763186_at): 5.56
- Fold-Change (MiaPaca-2 * PA vs. MiaPaca-2 * control), IL8 (probeset 11763226_x_at): 2.95
- Mean (MiaPaca-2 * PA), IL8 (probeset 11763226_x_at): 11.12
- Fold-Change (MiaPaca-2 * PA vs. MiaPaca-2 * control), CXCL1 /// CXCL2 (probeset 11763250_x_at): 2.26
- Mean (MiaPaca-2 * PA), CXCL1 /// CXCL2 (probeset 11763250_x_at): 10.74
- Fold-Change (MiaPaca-2 * PA vs. MiaPaca-2 * control), GRAMD1B (probeset 11763323_x_at): 1.71
- Mean (MiaPaca-2 * PA), GRAMD1B (probeset 11763323_x_at): 6.75
